One data set has as its target hD1R in SK-N-MC cells (Homo sapiens, UniProt P21728). Description: cAMP HTRF D1 functional assay. The conditions noted are these: for Erel: relative efficacy compared to dopamine maximum response, SK-N-MC cells.
A further data set concerns the target human D1R (Homo sapiens, UniProt P21728). Put plainly: Radioligand binding on HEK hD1R membranes with or without D1 PAM. The arrangement: expressed in transfected cells; host or cells: HEK cells, transient transfection, pcDNA3.1; membrane preparation. The procedure:
Transient transfection of human dopamine D1R was performed with pcDNA3.1 vector in human embryonic kidney cells (HEK hD1R).
The membrane of HEK hD1R cells were used to measure radioligand binding. 48 hours post transfection, cells were pelleted by centrifugation at 1,500 g and 4° C. for 10 min. Pellet was washed once with ice-cold phosphate buffered saline solution (PBS) and centrifuged as described just above. Pellet was homogenized in a buffer containing 15 mM Tris-HCl, 0.3 mM ethylene diamine tetraacetic acid, 1 mM ethylene glycol tetraacetic acid, 2 mM MgCl2 (pH 7.5) and complemented with protease inhibitor cocktail. The homogenate was freeze-thawed twice and equilibrated at 25° C. followed by a 10 min DNAse (10 U/ml) treatment. Subsequently, the solution was centrifuged at 40,000 g and 4° C. for 30 min. Finally, the pellet was resuspended in 20 mM Tris-HCl buffer (pH 7.4) containing 250 mM sucrose and store at −80° C. until D1 radioligand binding assay. […] At the end of the incubation period, the protein-bound radioligand was recovered by filtration through pre-soaked GF/B glass fiber filters. Filters were washed with at least 4 times the assay volume of ice-cold 50 mM Tris-HCl buffer (pH 7.4). […] The filters were dried and the radioactivity determined by liquid scintillation.
Competition/potentiation binding experiments were carried out at constant (−)-(Ic) concentration (1-4 nM) and 10 increasing concentrations of (−)-(Ic) or compound b (10^−10 M to 10^−5 M).

Data set [1] has as its target T1, D1 receptor (Macaca mulatta, UniProt O77680).
T1 construct: 12 μm brain slices were prepared from fresh frozen NHP brain hemisphere; tissue Motac (Bordeaux, France); host or cells: Macaca mulatta brain sections (caudate putamen)
Description: Autoradiography on NHP brain slices. Format: binding. How it is done: Brain sections from non-human primate (NHP) Macaca mulatta were provided by Motac (Bordeaux, France) where all animal experiments were performed in accordance with european animal use ethical guidance and legislation.
12 μm brain slices were prepared from fresh frozen NHP brain hemisphere and were placed on glass microscopy slide. Autoradiography experiment was performed at room temperature in HBSS HEPES buffer (pH 7.4). NHP brain sections first equilibrated for 30 min before to be incubated for one hour with [^3H]compound in 1% DMSO. Slides were then washed in iced-cold 50 mM Tris-HCl buffer (pH 7.4) for 5 min followed by two washes in iced-cold distilled water. Sections were dried under atmospheric pressure at room temperature. Radioactivity on slice was either measured indirectly after exposure of slides to a phosphor screen, either using a direct counter. In every autoradiography experiments, a [^3H]standard was included for quantification and the NSB was defined as the residual binding of [^3H]compound observed in the presence of 10 μM non-labeled compound.

The test system of data set [2] is D1 receptor. Description: In vivo PET imaging in cynomolgus monkey. How it is done:
Experiment was performed in a cynomolgus monkey (Female, body weight 6.02 kg). The monkeys were sedated using intramuscular injection of ketamine and kept anesthetized using a mixture of sevoflurane, oxygen and medical air for the duration of the experiment. A baseline scan was performed following intravenous administration of 141 MBq of (−)-(Ia) at a specific activity of 795 GBq/μmol and PET images of the brain were acquired using the Siemens HRRT PET scanner (Siemens Preclinical Solutions, Knoxville, Tenn.).
(§1) Data were acquired for 123 min and binned into sinograms with the following frame timing: 9×20 sec; 3×1 min; 5×3 min; and 17×6 min. Regions of interest used in this study were caudate nucleus, putamen, cerebellum, frontal cortex, occipital cortex, globus pallidus, midbrain, ventral striatum, thalamus and temporal cortex. Registration parameters were obtained to apply the regions of interests to the PET scan and regional time-activity curves (TACs) were generated. Venous blood samples were withdrawn at 4, 15, 30, 60, 90, 120 minutes after (−)-(Ie) administration for metabolite analysis.

Data set [3] is described as follows: Metabolite profile by radio-HPLC of venous blood samples. The class given is in vivo, cynomolgus monkey. The settings on record: for metabolites detected (words): venous blood, radio-HPLC. How it is done:
as §1
The profile of metabolites of (−)-Ia was determined by radio-HPLC analysis of the venous blood samples collected post-administration at several timepoints. The parent fraction in plasma is 85% at 15 minutes, 60% at 30 minutes and still about 45% at 60 minutes.

Data set [4] has as its system D1 receptor. Description: In vivo potentiation PET imaging with D1 PAM. Further details: species or system cynomolgus monkeys (Macaca fascicularis). The settings on record: FIG. 5, Compound-B 20 mg/kg. The procedure:
Two cynomolgus monkeys (Macaca fascicularis) housed at the MPI Research (Mattawan, Mich.), were used as research subjects for the in vivo potentiation PET studies.
Each animal was anesthetized with propofol iv bolus (2.5-5.0 mk/kg) and maintained with propofol iv Continuous Rate Infusion (CRI, 0.1-0.6 mg/kg/min). for at least 30 minutes prior to initiation of Compound-B i.v. dose administration. Several dose levels were administered. […]
Following Compound (−)-Ib administration, arterial blood samples were drawn from the central iliac artery prior to the dosing with Compound (−)-Ib and at 13 time points up to 120 min post-injection of Compound (−)-Ib. All blood samples were collected in anticoagulant tubes and stored on wet ice until quantification for radioactivity by gamma counter, measure of Compound (−)-Ib parent fraction in plasma over time by HPLC and Compound (−)-Ib ex vivo stability in blood.
Reconstructed dynamic brain PET images were transferred and analyzed using the image processing PMOD software package (PMOD Technologies, Zurich, Switzerland). […] Subsequent PET images acquired during drug studies were aligned first to the baseline images and then transformed into the common MR template space using the already calculated transformation from the baseline images. […]

Where [5] appears, read: saturation binding, 10 μM D1 PAM, HEK hD1R membranes (FIG. 3B).
[6] abbreviates: Logan reference tissue model, cerebellum as reference.

T1 sequence (O77680 whole entry): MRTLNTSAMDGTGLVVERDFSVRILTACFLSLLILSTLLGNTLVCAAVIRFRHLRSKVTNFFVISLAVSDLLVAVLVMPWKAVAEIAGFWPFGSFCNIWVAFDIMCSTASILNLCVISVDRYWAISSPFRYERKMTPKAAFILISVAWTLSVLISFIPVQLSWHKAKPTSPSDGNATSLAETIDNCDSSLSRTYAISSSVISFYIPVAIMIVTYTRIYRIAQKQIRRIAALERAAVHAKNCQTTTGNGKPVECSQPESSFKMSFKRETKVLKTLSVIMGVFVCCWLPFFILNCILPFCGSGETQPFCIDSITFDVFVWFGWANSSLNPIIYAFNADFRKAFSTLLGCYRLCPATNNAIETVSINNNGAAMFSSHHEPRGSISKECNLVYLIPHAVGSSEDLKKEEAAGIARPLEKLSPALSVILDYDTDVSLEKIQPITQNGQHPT
Sequence of hD1R in SK-N-MC cells (P21728 whole entry): as the sequence (O77680 whole entry) above, with I311N counted along it
Sequence of human D1R (P21728 whole entry): as the sequence (O77680 whole entry) above, with I311N counted along it
Description for hD1R in SK-N-MC cells: The reaction was terminated by consecutive additions of 10 μL d2 detection reagent and the cryptate reagent both diluted in lysis buffer. After a period of 60 min at room temperature, changes in HTRF emission ratio were determined and transformed in [cAMP]i using a standard curve.

For the compound `Cc1c(-c2ccc(Oc3nccc4occc34)cc2CF)n(C)c(=O)[nH]c1=O` (single isomer, unassigned) [Compound (−)-(I), 6-(2-(fluoromethyl)-4-(furo[3,2-c]pyridin-4-yloxy)phenyl)-1,5-dimethylpyrimidine-2,4(1H,3H)-dione], the EC50 on hD1R in SK-N-MC cells is 5.01 nM. In addition, on hD1R in SK-N-MC cells (cAMP HTRF), the “agonist-like effect on D1 receptor” value is given as “D1 partial agonist-like effect”. Further, the results for the Erel on hD1R in SK-N-MC cells and on hD1R in SK-N-MC cells (listed as (−)-I) were 53 ± 13% and 53%, respectively.

With “[^3H]-6-(2-(fluoromethyl)-4-(furo[3,2-c]pyridin-4-yloxy)phenyl)-1,5-dimethylpyrimidine-2,4(1H,3H)-dione [(−)-(Ic)]”, the “effect of D1 PAM on radioligand binding” value at human D1R (HEK hD1R membranes (FIG. 3)) is given as “significantly improved binding properties”. The “potentiation of radioligand binding by D1 PAM” value at human D1R (low nanomolar radioligand concentration (1-4 nM), FIG. 3C) is recorded as more than 50%. Moreover, at human D1R (setting [5]), the “decrease of KD by D1 PAM” value was found to be 20% and the “increase of Bmax by D1 PAM” value is 45%. The “specific binding in the presence of a D1 PAM” value at D1 receptor [1] (NHP brain slices, FIG. 4) was “significantly increased”. Moreover, the “Total Binding in caudate putamen (words)” value at D1 receptor [1] (NHP brain slices, listed as (Ic)) is listed as “significantly binds in caudate putamen”. At D1 receptor [1] (NHP brain slices, listed as (−)-Ic), the “Total Binding in caudate putamen (words)” value is given as “significant binding”. For the same compound, on D1 receptor [1] (in the presence of 10 μM compound (I), caudate putamen), the non specific binding stood at 20%.

On to `Cc1c(-c2ccc(Oc3nccc4occc34)cc2CF)n(C)c(=O)[nH]c1=O` (single isomer, unassigned) [(−)-(Ia), [^11C]-6-(2-(fluoromethyl)-4-(furo[3,2-c]pyridin-4-yloxy)phenyl)-1,5-dimethylpyrimidine-2,4(1H,3H)-dione], for which the “brain uptake pattern” value with D1 receptor [2] (PET images, summed SUV 33-63 minutes) is recorded as “uptake pattern consistent with the reported distribution of D1-like receptors in the brain”.

For `Cc1c(-c2ccc(Oc3nccc4occc34)cc2CF)n([11CH3])c(=O)[nH]c1=O` (single isomer, unassigned) [(−)-(Ia), [^11C]-6-(2-(fluoromethyl)-4-(furo[3,2-c]pyridin-4-yloxy)phenyl)-1,5-dimethylpyrimidine-2,4(1H,3H)-dione], the “peak uptake SUV” value in the data set with D1 receptor [2] (5-10 minutes post-administration, across brain regions, iv) is on record as 3.5-4. Moreover, in the data set on D1 receptor [2] (setting [6]), the “binding potential (BPND), caudate” value was determined as 0.94. The “binding potential (BPND), putamen” value in the data set with D1 receptor [2] (setting [6]) was found to be 0.87. For the same compound, the “SUV in caudate and putamen” value in the data set on D1 receptor [2] (at 60 minutes) is recorded as “about 2”. Moreover, the SUV in cerebellum result in the data set with D1 receptor [2] (at 60 minutes) is recorded as “about 1”. Besides, the “parent fraction in plasma” value in data set [3] (at 15 minutes) was 85%; in data set [3] (at 30 minutes) it was 60%; in data set [3] (at 60 minutes) it was “about 45%”. For the same compound, the “metabolites detected (words)” value is “no associated lipophilic metabolite” in data set [3] (listed as (Ia)) and “only hydrophilic metabolites unlikely to cross the blood-brain barrier have been detected” in data set [3] (listed as (−)-Ia).

As for `Cc1c(-c2ccc(Oc3nccc4occc34)cc2C[18F])n(C)c(=O)[nH]c1=O` [(−)-(Ib), [^18]-6-(2-(fluoromethyl)-4-(furo[3,2-c]pyridin-4-yloxy)phenyl)-1,5-dimethylpyrimidine-2,4(1H,3H)-dione], the “effect of D1 PAM on tracer binding/uptake in vivo (words)” value in the data set with D1 receptor [4] is on record as “significantly improved binding properties”; with D1 receptor [4] (listed as (−)-Ib), “increased uptake”.

The values above are taken from US20220162221A1, “Imaging Agents” (UCB Biopharma SRL, priority 2017, published 2022).
